Patent US20240051958A1, “DIACYLGLYCEROL KINASE (DGK) ALPHA INHIBITORS AND USES THEREOF” (priority 2022, published 2024)

Legend:
Human Pan T cells = test: IL-2 Release Detection Assay; type: cell-based; conditions: for Activation fold: Top activation/DMSO control; for Activation % at 100 nM: fitted curve at 100 nM/DMSO control*100%
Procedure: Add dilutions of compounds into the cells and incubate at 37° C. &5% CO2 for 24 hours. IL-2 in cell supernatant was detected by ELISA Kit (R&D, DY202). […] Top and Bottom: Plateaus in same units as Y. LogEC50: same log units as X. Activation fold: Top activation/DMSO control. Activation % at 100 nM: Activation of non-linear regression equation curve at the concentration of 100 nM/DMSO control*100%.

DGKA = DGKA (Homo sapiens (Human), UniProt P23743); test: DGKA Inhibition ADP-Glo Assay; type: biochemical; conditions: 40 μM ATP, 200 μM DLG in substrate working solution, 25° C., 60 min
Procedure: The DGKA inhibition reactions were performed using ADP-Glo assay. The reactions were carried out in 50 mM HEPES, 100 mM NaCl, 10 mM MgCl2, 1 mM CaCl2, 0.005% TritonX-100 and 1 mM DTT as working solution (pH=7.5). 30 nL DMSO solution of each test compound (Top concentration 0.4 μM with 10 point, 4-fold dilution series for each compound) were transferred to 384 well plate by Echo and 5 μL DGKA (SignalChem, D21-10BG) enzyme working solution at 2×final reaction concentration was added to each well. After incubated at 25° C. for 15 minutes, 5 μL substrate working solution contain 40 μM ATP (Promega, V915B) and 200 μM DLG (SignalChem, D430-59) were added to initiate reaction. After enzymatic reaction at 25° C. for 60 min, ADP Glo assay reagents (Promega, V9102) were added and luminescence was recorded using an EnVision following the instruction of manual. […] The IC50 value was calculated via a regression analysis of the inhibition rate.

[1] = Pharmacokinetic Profile Evaluation (mouse PK); type: in vivo, CD-1 mice; conditions: CD-1, plasma, oral administration at 5 mg/kg
Procedure: Species and strain: CD-1 mice of SPF. Source: Sino-British SIPPR/BK Lab Animal Ltd, Shanghai. 3 mice were intravenously administrated with given compounds (Formulation: 5% DMSO+10% Solutol+85% Saline) or orally gavage administrated with given compounds (Formulation: 5% DMSO+10% Solutol+85% Saline). The blood samples were taken via cephalic vein at timepoints 0.083 h, 0.25 h, 0.5 h, 1 h, 2 h, 4 h, 8 h and 24 h after intravenous administration or at timepoints 0.25 h, 0.5 h, 1 h, 2 h, 4 h, 6 h, 8 h and 24 h after oral gavage administration, 30 μL/time point. Blood samples were placed in tubes containing K2-EDTA and stored on ice until centrifuged. The blood samples were centrifuged at 6800 g for 6 minutes at 2-8° C. within 1 h after collected and stored frozen at approximately −80° C. An aliquot of 10 μL plasma samples were protein precipitated with 200 μL MeOH in which contains 10 ng/mL Verapamil (IS). The mixture was vortexed for 1 min and centrifuged at 18000 g for 7 min. Transfer 180 μL supernatant to 96 well plates. An aliquot of 6 μL supernatant was injected for LC-MS/MS analysis by LC-MS/MS-04 (API4000) instrument. The analytical results were confirmed using quality control samples for intra-assay variation. The accuracy of >66.7% of the quality control samples should be between 80-120% of the known value(s). Standard set of parameters including Area Under the Curve (AUC(0-t) and AUC(0-∞)), elimination half-live (T1/2), maximum plasma concentration (Cmax), will be calculated using noncompartmental analysis modules in FDA certified pharmacokinetic program Phoenix WinNonlin 7.0 (Pharsight, USA).

Chain of DGKA (P23743 whole entry): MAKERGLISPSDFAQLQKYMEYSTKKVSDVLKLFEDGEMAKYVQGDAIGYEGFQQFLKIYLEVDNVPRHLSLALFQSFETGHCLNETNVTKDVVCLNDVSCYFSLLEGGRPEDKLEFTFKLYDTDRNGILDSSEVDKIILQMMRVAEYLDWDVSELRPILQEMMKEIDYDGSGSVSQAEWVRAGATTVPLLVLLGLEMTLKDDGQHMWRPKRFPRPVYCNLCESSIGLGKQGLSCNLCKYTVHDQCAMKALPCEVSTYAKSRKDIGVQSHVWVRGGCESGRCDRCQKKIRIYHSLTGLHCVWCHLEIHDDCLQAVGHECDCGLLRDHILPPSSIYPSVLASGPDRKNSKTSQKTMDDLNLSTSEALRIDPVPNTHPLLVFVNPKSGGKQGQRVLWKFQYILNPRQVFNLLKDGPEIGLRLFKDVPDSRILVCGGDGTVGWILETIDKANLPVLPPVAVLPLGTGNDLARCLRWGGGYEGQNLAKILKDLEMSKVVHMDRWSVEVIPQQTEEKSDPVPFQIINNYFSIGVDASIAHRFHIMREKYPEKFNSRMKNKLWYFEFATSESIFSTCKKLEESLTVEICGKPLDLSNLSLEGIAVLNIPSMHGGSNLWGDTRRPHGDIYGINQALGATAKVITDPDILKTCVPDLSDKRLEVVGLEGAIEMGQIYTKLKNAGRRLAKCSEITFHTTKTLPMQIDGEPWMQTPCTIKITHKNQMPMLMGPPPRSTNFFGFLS

Row | Compound | Activation fold (Human Pan T cells) | Activation % at 100 nM (Human Pan T cells) [%] | IC50 (DGKA) [nM] | AUC(0-inf) [1] [ng·h/mL] | AUC(0-t) [1] [ng·h/mL] | Cmax [1] [ng/mL] | half-life [1] [h]
1 | Cc1ccc2oc(C3CCN(c4cc(=O)n(C)c5ccc(C#N)nc45)CC3)nc2c1 [Example 1, 5-methyl-8-(4-(5-methylbenzo[d]oxazol-2-yl)piperidin-1-yl)-6-oxo-5,6-dihydro-1,5-naphthyridine-2-carbonitrile] | 17.7 | 416 | 1.99 | 6150 | 5980 | 1880 | 1.46
2 | Cn1c(=O)cc(N2CCC(c3nc4cc(F)ccc4o3)CC2)c2nc(C#N)ccc21 [Example 12, 8-(4-(5-fluorobenzo[d]oxazol-2-yl)piperidin-1-yl)-5-methyl-6-oxo-5,6-dihydro-1,5-naphthyridine-2-carbonitrile] | 8.5 | 340 | 1.35 | 5940 | 5460 | 1100 | 3.56
3 | Cc1ccc2oc(C3CCN(c4cc(=O)n(C)c5cc(OCCO)c(C#N)nc45)CC3)nc2c1 [Example 23, 3-(2-hydroxyethoxy)-5-methyl-8-(4-(5-methylbenzo[d]oxazol-2-yl)piperidin-1-yl)-6-oxo-5,6-dihydro-1,5-naphthyridine-2-carbonitrile] | 24.5 | 931 | 0.27 | 12100 | 12000 | 1820 | 3.51
4 | Cc1ccc2oc(C3CCN(c4cc(=O)n(C)c5cc(O[C@@H]6CCOC6)c(C#N)nc45)CC3)nc2c1 [Example 28, (R)-5-methyl-8-(4-(5-methylbenzo[d]oxazol-2-yl)piperidin-1-yl)-6-oxo-3-((tetrahydrofuran-3-yl)oxy)-5,6-dihydro-1,5-naphthyridine-2-carbonitrile] |  |  | 0.14 | 3460 | 3410 | 677 | 2.67
